Laboratory results reported in patent publication US20080274061A1, “Method for Treating a Restless Limb Disorder” (priority 2007, published 2008).
Where a name gives a salt, the structure may show the parent alone. Read-outs that look alike come from different tables or passages of the source.

Key:
[1] = Comparative storage test of aqueous rotigotine HCl solution with/without α-cyclodextrin; type: physicochemical; conditions: storage at 60° C. for 8 weeks, solution of 1.6 mg/ml with α-cyclodextrin
[2] = test system: subjects with idiopathic RLS; experiment: Clinical trial: subject-rated severity of RLS sensory symptoms during Suggested Immobilization Tests; type: in vivo, human; conditions: for onset of action after administration: doses of 124 μg and 247 μg, intranasal; for maximum mean reduction from baseline in severity scores: single delivery, 0-10 scale
Description: This example relates to a randomized, double-blind, placebo-controlled parallel-group proof-of-concept trial which assessed the efficacy, safety and tolerability of ascending doses of rotigotine nasal spray for the treatment of acute symptoms of RLS in subjects with idiopathic RLS. This was evaluated by subject rating of severity of symptoms (sensory symptoms) on a numeric symptoms severity scale and by the Periodic Limb Movement (PLM) index (motor symptoms) as measured by actigraphy following triggering of symptoms by immobilization. […] Subjects randomized to the “placebo group” received a single delivery of matching placebo nasal spray on each treatment day. […] It has been shown that immobilization results in worsening of both motor and sensory components of RLS symptoms. […] On each treatment day, the trial medication was administered 30 minutes after the start of the pre-dose SIT-0 or as soon as the subject's severity score reaches 5 on the numeric symptom severity scale, whichever is sooner. The last scoring prior to dosing is defined as the baseline value for each individual subject. • 1. […] PLM during Wakefulness Index (PLMWI) for each SIT and for specified time sections of each SIT (PLM during awake epochs/h, motor symptoms) was evaluated based on PLM measurements by means of actigraphy, recorded over the entire duration of the SIT period (pre dose and post dose SIT-0 to SIT-6, approximately 4.5 hours). Severity of symptoms in the legs was assessed by subject ratings using a numeric symptoms severity scale at the start of each pre-dose and post-dose SIT-0 to SIT-6 and every 5 minutes during each SIT. Scores on the scale range from 0 (‘no symptoms’) to 10 (‘very severe’).

[3] = Maximum solubility in aqueous cyclodextrin solution at room temperature, isocratic HPLC; type: physicochemical; conditions: aqueous solution and aqueous solutions containing α- or β-cyclodextrin
Description: The concentration was determined by isocratic HPLC analysis. HPLC column LiChroCART 75×4 mm, Superspher 60 RP-select B 5 μm (Merck), column temperature: 30° C., mobile phase:water/acetonitrile/methanesulfonic acid (65/35/0.05 v/v/v), flow rate: 2 ml/min, injection volume: 50 μl, detection at 220 nm, retention time approx. 1.5 min. The concentration was determined by use of an external reference solution having known concentration.

[4] = test system: subjects with idiopathic RLS; experiment: Clinical trial: PLM during Wakefulness Index (PLMWI) by actigraphy during SITs; type: in vivo, human; conditions: highest dose (247 μg) nasal spray
Description: This example relates to a randomized, double-blind, placebo-controlled parallel-group proof-of-concept trial which assessed the efficacy, safety and tolerability of ascending doses of rotigotine nasal spray for the treatment of acute symptoms of RLS in subjects with idiopathic RLS. This was evaluated by subject rating of severity of symptoms (sensory symptoms) on a numeric symptoms severity scale and by the Periodic Limb Movement (PLM) index (motor symptoms) as measured by actigraphy following triggering of symptoms by immobilization. […] Subjects randomized to the “placebo group” received a single delivery of matching placebo nasal spray on each treatment day. • 1. […] PLM during Wakefulness Index (PLMWI) for each SIT and for specified time sections of each SIT (PLM during awake epochs/h, motor symptoms) was evaluated based on PLM measurements by means of actigraphy, recorded over the entire duration of the SIT period (pre dose and post dose SIT-0 to SIT-6, approximately 4.5 hours). RLS is usually associated with involuntary PLM occurring in wakefulness (PMLW) and sleep (PMLS) in 80-85% of RLS patients. […] A central reader was used to standardize PLM evaluation of the actigraphy measurements performed during the SIT period. […]

[5] = buccal, nasal or rectal administration to rats as HCl salt, compared with oral dosing; cited from earlier work
[6] = orally (perorally) administered, first-pass metabolism in the liver; cited from earlier work
[7] = effect of glycerol, in vitro permeation assays; cited from earlier work

SMILES	decrease in the rotigotine concentration [1]	onset of action after administration [2]	solubility (in words) [3]	maximum mean reduction from baseline in severity scores ([2]; 62 μg nasal spray)	maximum mean reduction from baseline in severity scores ([2]; 124 μg nasal spray)	maximum mean reduction from baseline in severity scores ([2]; 247 μg nasal spray)	decrease in the mean severity scores ([2]; doses of 124 μg and 247 μg nasal spray, SIT-1 through SIT-6, 0-10 scale)	decrease from baseline in the PLMWI [4]	bioavailability (in words) [5]	bioavailability (in words) [6]	absorption through bovine nasal mucosa (in words) [7]
CCCN(CCc1cccs1)[C@H]1CCc2c(O)cccc2C1 [Rotigotine HCl]	-0.07 mg/mL	10 min									
CCCN(CCc1cccs1)[C@H]1CCc2c(O)cccc2C1 [Rotigotine base]			practically insoluble								
CCCN(CCc1cccs1)[C@H]1CCc2c(O)cccc2C1 [rotigotine, (−)-5,6,7,8-tetrahydro-6-[propyl[2-(2-thienyl)ethyl]amino]-1-naphthol]		10 min		−0.8 points	−2.0 points	−2.3 points	approximately 2 points	approximately 10 points	improved bioavailability	close to zero	enhance absorption
